Columns and labels:
PI-3 kinase γ [1] = target: T1, PI-3 kinase γ (Homo sapiens, UniProt P48736); assay: PI3Kγ inhibitory activity, PI3-kinase HTRF assay (inhibition ratio); format: biochemical; conditions: 0.5 h, compound at 50 μmol/L
Method in brief: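 Human PI3Kγ was preincubated 10 min with compound and PIP2 substrate, then reacted 30 min at room temperature with ATP (40 μmol/L in the added solution); EDTA/biotin-PIP3 quenched. HTRF 665/620 nm ratio read after 18 h, normalized to no-compound (100%) and no-enzyme (0%) controls, gave % inhibition at 50 or 10 μmol/L compound.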

[2] = Metabolic stability test, pooled human liver microsome; format: in vitro ADME; conditions: 2 μmol/L compound; human liver microsome 0.5 mg protein/mL, NADPH, 37° C.
Experimental: After a subject compound was reacted for a certain time using a commercially available pooled human liver microsome, a reacted sample and an unreacted sample are compared to calculate a survival ratio, and then the degree of metabolism in the liver was evaluated.
0.2 mL of a buffer solution (50 mmol/L of Tris-HCl in pH 7.4, 150 mmol/L of potassium chloride, and 10 mmol/L of magnesium chloride) containing a human liver microsome of 0.5 mg protein/mL was reacted in the presence of 1 mmol/L NADPH at 37° C. for 0 or 30 minutes (oxidative reaction). After reacting, 50 μL of the reaction solution was added to 100 μL of a solution of methanol/acetonitrile (1/1 (v/v)), mixed, and then centrifuged at 3000 rpm for 15 minutes. The test compound in the supernatant was quantitated with LC/MS/MS. The amount of the compound at a reaction time of 0 minute was defined as 100% and, based on that, the percentage of the test compound remained after reacting for 30 minutes was calculated.

PI-3 kinase γ [3] = target: T1, PI-3 kinase γ; assay: PI3Kγ inhibitory activity (Ki value); format: biochemical; conditions: test ATP concentration 10 μmol/L
Experimental: The PI3Kγ inhibitory activity (Ki value) of a compound was evaluated according to the following procedure:
5 μL of a compound solution containing 10% DMSO and 200 μmol/L of a compound was changed to 5 μL of a compound solution containing 10% DMSO and either 200, 64, 20, 6.4, 2, 0.64, or 0.20 μmol/L of the compound (optionally, this is diluted to a lower concentration). Using a method similar to the method for measuring PI3Kγ inhibitory activity, inhibition ratios were measured in the presence of the compound at 50, 16, 5, 1.6, 0.5, 0.16, and 0.05 μmol/L (optionally, a lower concentration). Then an IC50 value was calculated by a logistic approximation method or the linear regression method using two concentrations that across 50% inhibition. Separately, the ATP concentration in the reaction solution (40 μmol/L ATP, 10 mmol/L MgCl2, 5 mmol/L DTT) at the time of the start of a reaction in the absence of the compound was changed to 80, 40, 20, 10, 5, 2.5, 1.25, or 0.625 μmol/L. Then, HTRF ratios were measured by a similar method. The value obtained by subtracting the HTRF ratio at each ATP concentration from the HTRF ratio in the absence of PI-3 kinase γ was defined as the value obtained by multiplying reaction rate (v) at each ATP concentration with a constant. The Michaelis-Menten constant Km was then calculated by the Lineweaver-Burk plot method. The Ki value of a compound was calculated by the following formula.
Ki=IC50 value/(1+10 μmol/L (test ATP concentration)/Km(μmol/L))

CYP2C9 = target: T2, CYP2C9 (Homo sapiens, UniProt P11712); assay: CYP inhibition test, methyl-hydroxylation of tolbutamide; format: in vitro ADME; conditions: pooled human liver microsome; one of 5 kinds
T2 construct: enzyme: pooled human liver microsome 0.2 mg protein/mL; from tissue; host or cells: pooled human liver microsomes
Source text: O-de-ethylation of 7-ethoxyresorufin (CYP1A2), methyl-hydroxylation of tolbutamide (CYP2C9), 4′-hydroxylation of mephenyloin (CYP2C19), O-demethylation of dextromethorphan (CYP2D6), and hydroxylation of terfenadine (CYP3A4), which are typical substrate for metabolic reactions of human main CYP5 molecular species (CYP1A2, 2C9, 2C19, 2D6, and 3A4), were adopted as indexes.
The reaction conditions are as follows: substrate: 0.5 μmol/L of ethoxyresorufin (CYP1A2), 100 μmol/L of tolbutamide (CYP2C9), 50 μmol/L of S-mephenyloin (CYP2C19), […] of dextromethorphan (CYP2D6), and 1 μmol/L of terfenadine (CYP3A4); reaction time; 15 minutes; reaction temperature: 37° C.; enzyme: pooled human liver microsome 0.2 mg protein/mL; test drug concentration: 1, 5, 10, and 20 μmol/L (4 points).
In a 96-well plate, as a reaction solution, five kinds of substrates, a human liver microsome, and a test drug were added to 50 mmol/L Hepes buffer solution in the aforementioned ratio. A coenzyme NADPH was added to start a metabolic reaction, which is an index. After reacting at 37° C. for 15 minutes, a solution of methanol/acetonitrile (1/1 (v/v)) was added to quench the reaction. After centrifugation at 3000 rpm for 15 minutes, resorufin (CYP1A2 metabolite) in the supernatant was quantitated with a fluorescence multilabel counter, and hydroxylated tolbutamide (CYP2C9 metabolite), 4′-hydroxylated mephenyloin (CYP2C19 metabolite), […], terfenadine in alcohol form (CYP3A4 metabolite) were quantitated with LC/MS/MS.
The case wherein only DMSO (a solvent which dissolved a drug) was added to a reaction system was defined as a control (100%). When a test drug solution was added, the remaining activity (%) at each concentration was calculated, and then IC50 was calculated with a concentration and an inhibition ratio by an inverse estimation using a logistic model.

T1 sequence (P48736 whole entry): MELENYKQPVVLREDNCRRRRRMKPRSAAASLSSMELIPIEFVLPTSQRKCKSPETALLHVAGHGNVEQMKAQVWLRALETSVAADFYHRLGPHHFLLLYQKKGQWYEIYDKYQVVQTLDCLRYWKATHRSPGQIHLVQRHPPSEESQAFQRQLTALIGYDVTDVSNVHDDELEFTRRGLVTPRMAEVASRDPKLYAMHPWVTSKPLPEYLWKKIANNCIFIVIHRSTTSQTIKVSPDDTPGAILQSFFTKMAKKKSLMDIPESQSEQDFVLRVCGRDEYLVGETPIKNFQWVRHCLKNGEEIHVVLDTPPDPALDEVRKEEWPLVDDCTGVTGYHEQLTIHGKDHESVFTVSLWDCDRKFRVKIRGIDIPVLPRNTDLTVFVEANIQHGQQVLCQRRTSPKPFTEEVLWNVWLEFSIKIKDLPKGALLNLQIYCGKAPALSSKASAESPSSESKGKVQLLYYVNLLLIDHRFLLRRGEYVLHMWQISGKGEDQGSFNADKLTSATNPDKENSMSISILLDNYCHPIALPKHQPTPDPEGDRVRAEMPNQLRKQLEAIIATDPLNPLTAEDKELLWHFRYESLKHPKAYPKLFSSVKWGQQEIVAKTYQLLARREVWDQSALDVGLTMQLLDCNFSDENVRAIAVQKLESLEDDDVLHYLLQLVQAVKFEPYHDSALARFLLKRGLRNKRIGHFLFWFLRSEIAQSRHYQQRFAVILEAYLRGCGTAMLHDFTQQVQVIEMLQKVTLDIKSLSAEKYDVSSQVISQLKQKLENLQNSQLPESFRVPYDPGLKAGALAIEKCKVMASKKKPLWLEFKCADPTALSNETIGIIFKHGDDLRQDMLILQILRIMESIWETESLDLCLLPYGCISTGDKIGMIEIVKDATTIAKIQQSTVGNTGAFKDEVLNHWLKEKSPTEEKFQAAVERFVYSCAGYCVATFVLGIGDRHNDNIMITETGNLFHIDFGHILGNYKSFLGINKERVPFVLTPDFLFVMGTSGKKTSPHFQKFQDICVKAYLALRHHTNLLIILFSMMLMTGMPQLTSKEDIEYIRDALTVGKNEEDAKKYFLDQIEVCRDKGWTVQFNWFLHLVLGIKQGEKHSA
T2 sequence (P11712 whole entry): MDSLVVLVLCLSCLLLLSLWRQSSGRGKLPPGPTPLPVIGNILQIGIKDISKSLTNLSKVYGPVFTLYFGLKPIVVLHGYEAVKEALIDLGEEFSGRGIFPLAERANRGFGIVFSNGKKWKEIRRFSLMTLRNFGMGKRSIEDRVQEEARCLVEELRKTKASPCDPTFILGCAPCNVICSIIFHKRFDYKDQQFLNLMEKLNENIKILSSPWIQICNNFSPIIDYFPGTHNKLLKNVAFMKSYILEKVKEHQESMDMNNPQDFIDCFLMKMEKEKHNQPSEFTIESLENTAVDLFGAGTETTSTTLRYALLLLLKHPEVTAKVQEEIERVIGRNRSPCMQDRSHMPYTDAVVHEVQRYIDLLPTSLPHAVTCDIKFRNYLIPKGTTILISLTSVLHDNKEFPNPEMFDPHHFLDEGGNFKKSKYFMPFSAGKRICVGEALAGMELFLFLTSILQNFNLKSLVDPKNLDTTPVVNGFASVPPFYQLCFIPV

## O=C(O)c1ccccc1Nc1ccc2c(n1)N(C(=O)Nc1ccccc1)CCO2 [Compound I-145]
PI-3 kinase γ [1]
  inhibition at 50 µM: 81%
[2]
  percentage of test compound remained after reacting for 30 minutes: 88.4%
PI-3 kinase γ [3]
  Ki: 0.044 µM

## O=C(O)COc1cccc(Nc2ccc3c(n2)N(C(=O)Nc2ccccc2)CCO3)c1 [Compound I-240]
PI-3 kinase γ [1]
  inhibition at 50 µM: ≥ 95%
CYP2C9
  IC50: > 20 µM
[2]
  percentage of test compound remained after reacting for 30 minutes: 89.9%
PI-3 kinase γ [3]
  Ki: 0.048 µM

— US20110172217A1, “RING-FUSED MORPHOLINE DERIVATIVE HAVING PI3K-INHIBITING ACTIVITY” (Shionogi & Co., Ltd., priority 2008, published 2011)
